The text below walks through data of US20260224716A1, “PTH ANALOGS FOR THE TREATMENT OF HYPOPARATHYROIDISM” (priority 2020, published 2026).

The target of the assay is T1, PTHR1 (Homo sapiens, UniProt Q03431).
T1 construct: host or cells: CHO-K1
T1 sequence (Q03431 27-593): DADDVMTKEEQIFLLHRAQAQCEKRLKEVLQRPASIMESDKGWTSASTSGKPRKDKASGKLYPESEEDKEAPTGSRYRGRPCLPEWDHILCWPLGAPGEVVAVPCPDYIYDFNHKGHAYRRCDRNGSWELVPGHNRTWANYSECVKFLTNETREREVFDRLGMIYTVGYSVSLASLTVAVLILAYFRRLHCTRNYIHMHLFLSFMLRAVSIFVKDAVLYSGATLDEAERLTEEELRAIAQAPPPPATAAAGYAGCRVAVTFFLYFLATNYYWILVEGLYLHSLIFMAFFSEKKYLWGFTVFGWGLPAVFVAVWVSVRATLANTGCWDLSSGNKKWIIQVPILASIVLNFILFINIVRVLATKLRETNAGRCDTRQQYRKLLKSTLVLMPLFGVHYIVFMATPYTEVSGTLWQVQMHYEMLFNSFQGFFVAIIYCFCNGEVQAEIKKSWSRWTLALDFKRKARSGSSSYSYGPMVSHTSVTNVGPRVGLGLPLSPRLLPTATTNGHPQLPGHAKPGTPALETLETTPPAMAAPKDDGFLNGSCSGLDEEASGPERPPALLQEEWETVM
Put plainly: cAMP Hunter Teriparatide Bioassay (CHO-K1 PTHR1 cells). Format: cell-based.

Protocol: The assessment of the bioactivity of a prodrug relative to its drug form was conducted in a proprietary commercial assay as contracted with Eurofins-Discover Rx Corporation win a cAMP Hunter® Teriparatide Bioassay (95-0118Y2). An 11-point dose curve in agonist mode was conducted for each individual peptide or incubation condition. Every sample was run at each dose in triplicate.
An 11-point dose curve in agonist mode was conducted for each individual peptide or incubation condition. Every sample was run at each dose in triplicate.
An 11-point dose curve in agonist mode was conducted for each individual peptide at each concentration. Every sample was run at each dose in triplicate.

On to `CC[C@H](C)[C@H](NC(=O)[C@H](CCC(=O)O)NC(=O)[C@H](CO)NC(=O)[C@@H](NC(=O)[C@H](CO)NC(=O)CN(C)C(=O)[C@H](N)CCCCNC(=O)CC[C@H](NC(=O)COCCOCCNC(=O)COCCOCCNC(=O)CC[C@H](NC(=O)CCCCCCCCCCCCCCCCC(=O)O)C(=O)O)C(=O)O)C(C)C)C(=O)N[C@@H](CCC(N)=O)C(=O)N[C@@H](CC(C)C)C(=O)N[C@@H](CCSC)C(=O)N[C@@H](Cc1c[nH]cn1)C(=O)N[C@@H](CC(N)=O)C(=O)N[C@@H](CC(C)C)C(=O)NCC(=O)N[C@@H](CCCCN)C(=O)N[C@@H](Cc1c[nH]cn1)C(=O)N[C@@H](CC(C)C)C(=O)N[C@@H](CC(N)=O)C(=O)N[C@@H](CO)C(=O)N[C@@H](CCSC)C(=O)N[C@@H](CCC(=O)O)C(=O)N[C@@H](CCCNC(=N)N)C(=O)N[C@H](C(=O)N[C@@H](CCC(=O)O)C(=O)N[C@@H](Cc1c[nH]c2ccccc12)C(=O)N[C@@H](CC(C)C)C(=O)N[C@@H](CCCNC(=N)N)C(=O)N[C@@H](CCCCN)C(=O)N[C@@H](CCCCN)C(=O)N[C@@H](CC(C)C)C(=O)N[C@@H](CCC(N)=O)C(=O)N[C@@H](CC(=O)O)C(=O)N[C@H](C(=O)N[C@@H](Cc1c[nH]cn1)C(=O)N[C@@H](CCCCNC(=O)CC[C@H](NC(=O)COCCOCCNC(=O)COCCOCCNC(=O)CC[C@H](NC(=O)CCCCCCCCCCCCCCCCC(=O)O)C(=O)O)C(=O)O)C(=O)O)C(C)C)C(C)C` [SEQ ID NO: 87], for which the Hillslope reads like this: (FIG. 11, prodrug incubated in PBS 1 day) 1.421; (FIG. 11, prodrug incubated in PBS 2 day) 2.102; (FIG. 11, prodrug incubated in PBS 3 day) 1.825; (FIG. 11, prodrug incubated in PBS 5 day) 2.102; (FIG. 11, prodrug incubated in PBS 8 day) 2.172. The “PTH agonism” value (conclusions from Table 14, FIGS. 8A-8C) was “full PTH agonist of high nM potency”.
